“Also recorded” adds a separate entry of the source. Like-named read-outs stand apart in the source and are kept apart here. No end group written: not given here.
Assays:
HT-1080 cells [1] = test: Cell migration: scraping assay and Boyden chamber assay without Matrigel; type: cell-based; conditions: 1-10 μM in scraping assay
Experimental: Scraping assay: HT-1080 cells were seeded at 2e6/well in 6-well plates in complete medium. […] Cell layers were then scraped with a plastic tip.
The effect of DX-1000 on cell migration was evaluated using two different assays, the scraping assay and a Boyden chamber assay without Matrigel.

[2] = test system: plasmin-mediated pro-MMP-9 activation in HL-60 cells; test: Gelatin zymography of HL-60 conditioned media; type: cell-based; conditions: for inhibition of plasmin-mediated pro-MMP-9 activation: HL-60 cells, gelatin zymography, 1 μM, 48 hours
Experimental: (§1) Cell culture of tumor cell lines: HT-1080 (fibrosarcoma), and LNCaP (androgen-dependent prostate cancer) cell lines were grown to 80% confluence in Dulbecco's modified Eagle medium (DMEM) supplemented with 10% FCS, glutamine ([…]), sodium bicarbonate (2.1 g/l), ascorbic acid ([…]) and penicillin-streptomycin (P/S) (100 U/ml). LNCaP cells were stimulated with di-hydro-testosterone (DHT, 10 nM). Non-adherent HL-60 (acute myeloid leukemia) cell line was grown in RPMI medium supplemented with 20% FCS, glutamine 4 mM, sodium bicarbonate (1.5 g/l) and P/S (100 U/ml). Cultures were maintained at a cell concentration between 1e5 and 1e6/ml.
Gelatin zymography: HL-60 cells were cultured in serum-free medium (Ultraculture medium). Different conditions were considered: with and w/o DX-1000 at 1 μM; with or without pro-MMP-9 activators (plasmin+pro-MMP-3). Cells were cultured at 37° C./5% CO2 for 48 hours. Aliquots of conditioned media (CM) were then collected, clarified by centrifugation, mixed with electrophoresis sample buffer without reducing agent, and applied to 10% acrylamide gels containing gelatin (1 mg/ml). Active recombinant gelatinases served as standard. Samples were resolved at 20 mA, washed in 2% Triton X-100 for 1 hour and incubated at 37° C. for 16 hours in activation buffer containing 50 mM Tris-HCl, pH 7.4, 0.2 M NaCl, 5 mM CaCl2. After staining with Coomassie brilliant blue R-250, the gelatinolytic activities were detected as clear bands against the blue background.

clot lysis = test: clot lysis
endothelial cells = test: in vitro endothelial tubulogenesis (tube formation) assay, cell type not specified; type: cell-based; conditions: for inhibition of tubulogenesis / angiogenesis in vitro: qualitative
Experimental: (§2) Tube formation assay: HUVECs were cultured on gelatin-coated culture dishes in RPMI medium. The cells (passage 2) were seeded at 8e4/well of a 96-well plate on collagen type I (1.5 mg/ml, SERVA) in their culture medium (EGM-2 complete medium supplemented with 10% FCS) and allowed to spread for 1 hour. The culture medium was then discarded and the cells were covered with a new layer of collagen type I (1.5 mg/ml, new preparation). […] Mouse endothelial cells (EC) (LEII cell line) were seeded at 2e4/well of a 96-well plate on GFR-Matrigel (BD) in their culture medium (IMDM supplemented with 10% FCS) in presence of a dose range of DX-1000 and incubated at 37° C./5% CO2 for 5 hours. Endothelial tube formation was assessed with an inverted photomicroscope (Analis). Microphotographs of the center of each well at low power (40×) were taken with a NIKON camera with the aid of imaging-capture software (NIKON). Tube formation in the microphotographs was quantitatively analyzed (total tube length) with METAVUE™ software (Universal Imaging Corporation). Tube formation by untreated HUVECs in full endothelial cell growth medium was used as a control. IC50 values were determined with SIGMAPLOT™.
DX-1000 was also tested for its activity in an in vitro endothelial tubulogenesis assay (“tube formation assay” described in Methods.). […]

HL-60 cells = test: Apoptosis (caspase 3/7 activity, FACS), HL-60; type: cell-based; conditions: also FACS assay
Experimental: (§3) Apoptosis was evaluated using an assay for detecting caspase 3/7 activity using caspase 3/7 substrate. Apoptosis was also not detected using a FACS assay.

[3] = test system: plasmin-activated MMP-9 activity; test: BIOTRAK assay kit, MMP-9 activity in HL60 conditioned media; type: cell-based; conditions: 1 μM, HL60, two days of culture
Experimental: In addition to gelatin zymography, we evaluated the plasmin inhibitors using the BIOTRAK® assay kit. HL60 were seeded at 4×10^5 cells/well (24 wells plate) in a serum free medium (UltraCulture medium). The day after, different conditions were evaluated: samples with and without activators of pro-MMP9 (Plasmin and pro-MMP-3) and samples with and without DX-1000 and 4-PEG-DX-1000 (1 μM). After two days of culture, conditioned media were collected an activity of MMP-9 was assessed using the BIOTRAK® assay kit. Assay time was approximately one hour under standard conditions. At a 1 μM concentration, DX-1000 and 4-PEG DX-1000 effected an approximately 68-70% reduction in plasmin-activated MMP-9 activity.

HT-1080 cells [4] = test: Chemo-invasion through Matrigel, HT-1080 cells; type: cell-based
Experimental: as §1
(§4) Chemo-invasion: HT-1080 and LNCaP cells were seeded at 10^6/well in 24-well cluster plates and incubated overnight. They were then incubated in the presence of a dose range of DX-1000 for 24 hours. […] Chemo-invasion was assessed using Transwell cell culture chamber inserts (Becton Dickinson) with Growth Factor Reduced-[…]® (GFR-[…]®) coated filters. After trypsinization, cells were seeded in the upper part of the invasion chamber (1e4/insert). RPMI medium supplemented with 5% FCS and 1% BSA and NIH3T3 CM used as chemoattractants for HT-1080 and LNCaP cells, respectively. After 24 hours of incubation at 37° C., filters were removed from the chambers, stained, and the % of invading cells was evaluated. Each condition was performed in duplicate.

SW-480 cells = test: Apoptosis (caspase 3/7 activity, FACS), SW-480; type: cell-based, human; conditions: also FACS assay
Experimental: as §3

SW480 cells = test: Soft agar colony formation; type: cell-based, human; conditions: 0.1 to 50 μM
Experimental: We also evaluated DX-1000 in an assay to measure the sensitivity of human tumors to drugs before progressing to in vivo studies. SW-480 cells are grown in vitro in soft agar, reducing cell movement and allowing individual cells to develop into cell clones that are identified as single colonies. 3,000 SW480 cells were seeded into each well of six well plates. Each treatment was run in triplicate. Five 4× images were taken from each well for quantification using the […]® software.

human plasmin = human plasmin (Homo sapiens, UniProt P00747); test: plasmin inhibition (Ki); type: biochemical
prothrombin time (PT) = conditions: concentrations>5.6 μM
[5] = global coagulation screening tests (haemostasis in vitro)
LNCaP cells = test: Chemo-invasion through Matrigel, LNCaP cells (DHT-stimulated); type: cell-based
Experimental: as §1, §4

HUVECs = test: Tube formation assay, HUVECs on collagen type I; type: cell-based, human; conditions: for IC50: total tube length, 16-18 hours, read-out: IC50 tube formation, HUVEC
Experimental: as §2

Clauss fibrinogen assay = conditions: concentrations>5.6 μM
[6] = Pharmacokinetics of iodinated protein in rabbits; type: in vivo; conditions: rabbit, ear vein injection
Experimental: (§5) Labeling: we used […] protein and the Iodogen (Pierce) method, ˜1.7 mCi. Purification: we used D-salt polyacrylamide column and collected fractions, with total recovery ˜90%. We pooled high yield fractions for injections. Mice: we injected […] via tail vein. One time point/animal; four animals/time point. We used the following time points: no PEG at 0, 7, 15, 30, and 90 min. PEG at 0, 7, 15, 30, and 90 min, 4, 8, 16, and 24 hrs. We analyzed total plasma counts, used HPLC on Superose 12 (stability), and analyzed biodistribution. Rabbits: we injected 80 mg/animal via left ear vein. Blood was drawn from the right ear at following time points: no PEG at 0, 7, 15, 30, 90 min, 4, 8, 16, 24, 48, 72, and 96 hrs. PEG at 0, 7, 15, 30, 90 min, 4, 8, 16, 24, 48, 72, 96, 120, 144, 168, and 192 hrs. We preformed the following analyses: total plasma counts and HPLC on Superose 12 (stability) at 48, 72, 96, 120, 144, 168, and 192 hrs.

platelet function = platelet function screening test
fibrinolysis = test: Thrombelastography (TEG); conditions: 280-560 nM DX-1000
[7] = activated partial thromboplastin time (APTT)
[8] = Pharmacokinetics of iodinated protein in normal mice; type: in vivo; conditions: tail vein injection
Experimental: as §5

[9] = test system: Mouse endothelial cells (EC) (LEII cell line); test: Tube formation assay, mouse endothelial cells (LEII) on GFR-Matrigel; type: cell-based; conditions: for IC50: total tube length, 5 hours
Experimental: as §2

[10] = Allometric extrapolation of stability to humans; conditions: allometric extrapolations from mouse and rabbit
Excerpt: By allometric extrapolations, we should expect a stability of 9 days in humans.

[11] = DX-1000 1-10 nM, Matrigel or collagen type I

Chain of human plasmin (P00747 581-810 limits assumed): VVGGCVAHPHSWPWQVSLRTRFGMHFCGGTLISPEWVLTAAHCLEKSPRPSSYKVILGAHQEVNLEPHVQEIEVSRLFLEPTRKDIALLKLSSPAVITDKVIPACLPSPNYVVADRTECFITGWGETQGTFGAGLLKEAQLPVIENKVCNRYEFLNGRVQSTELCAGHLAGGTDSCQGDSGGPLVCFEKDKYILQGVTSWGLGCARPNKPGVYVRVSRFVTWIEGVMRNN
Chain of human plasmin (P00747 97-580 partner limits assumed): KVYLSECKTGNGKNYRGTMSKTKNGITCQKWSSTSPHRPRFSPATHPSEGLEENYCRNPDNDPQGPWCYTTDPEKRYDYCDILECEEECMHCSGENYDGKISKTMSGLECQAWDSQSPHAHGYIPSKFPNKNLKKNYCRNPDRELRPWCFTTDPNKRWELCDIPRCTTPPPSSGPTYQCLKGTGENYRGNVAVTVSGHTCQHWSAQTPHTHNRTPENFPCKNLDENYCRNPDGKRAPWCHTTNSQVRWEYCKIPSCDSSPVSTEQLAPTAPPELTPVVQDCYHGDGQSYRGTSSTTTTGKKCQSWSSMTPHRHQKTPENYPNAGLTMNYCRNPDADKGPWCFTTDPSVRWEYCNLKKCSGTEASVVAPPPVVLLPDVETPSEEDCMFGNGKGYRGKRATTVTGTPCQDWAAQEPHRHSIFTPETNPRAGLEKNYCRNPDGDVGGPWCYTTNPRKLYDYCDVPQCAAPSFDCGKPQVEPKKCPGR

Substance: DX-1000: Kunitz domain that inhibits human plasmin; framework region of human LACI; SEQ ID NO:22 or 23 (MHSFCAFKAETGPCRARFDRWFFNIFTRQCEEFIYGGCEGNQNRFESLEECKKMCTRD)
- two-dimensional migration of HT-1080 cells in vitro (HT-1080 cells [1]): did not inhibit migration; also recorded: does not inhibit
- inhibition of plasmin-mediated pro-MMP-9 activation [2]: 64%
- MMP (gelatinase) expression and activation ([2]; qualitative): inhibited plasmin-mediated MMP activation; also recorded: down-regulates MMP expression and activation; also recorded: down-regulated efficiently the expression and activation of gelatinases
- concentration at which inhibition of clot lysis was observed (clot lysis): > 700 nM
- efficiency at inhibiting tube formation compared with aprotinin (endothelial cells): at least as efficient as aprotinin
- inhibition of tubulogenesis / angiogenesis in vitro (endothelial cells): decreased in vitro angiogenesis; also recorded: potent inhibitor of tubulogenesis in vitro
- induction of apoptosis in HL-60 cells (HL-60 cells): do not induce apoptosis
- reduction in plasmin-activated MMP-9 activity [3]: 68-70%
- concentrations effective at inhibiting invasion in vitro (HT-1080) (HT-1080 cells [4]): effective at nanomolar and sub-nanomolar concentrations
- in vitro invasiveness of tumor cells (HT-1080) (HT-1080 cells [4]): decreased in vitro invasiveness of tumor cells; also recorded: decreases the in vitro invasiveness of tumor cells
- potency in invasion assay compared with aprotinin (HT-1080) (HT-1080 cells [4]): more potent inhibitor than aprotinin
- inhibition of invasion of HT-1080 through Matrigel (HT-1080 cells [4]; DX-1000 1 nM): inhibited
- induction of apoptosis in SW-480 cells (SW-480 cells): do not induce apoptosis
- colony formation by SW480 cells (SW480 cells): did not inhibit colony formation
- Ki (human plasmin): 0.088 nM
- effect on prothrombin time (PT) (prothrombin time (PT)): did not observe an effect
- effects in global coagulation screening tests / haemostasis in vitro [5]: did not significantly influence haemostasis in vitro; also recorded: did not detect any clinically significant effects; also recorded: no clinically significant effects
- concentrations effective at inhibiting invasion in vitro (LNCaP) (LNCaP cells): effective at nanomolar and sub-nanomolar concentrations
- in vitro invasiveness of tumor cells (LNCaP) (LNCaP cells): decreased in vitro invasiveness of tumor cells; also recorded: decreases the in vitro invasiveness of tumor cells
- potency in invasion assay compared with aprotinin (LNCaP) (LNCaP cells): more potent inhibitor than aprotinin
- inhibition of DHT-stimulated invasion of LNCaPs through Matrigel (LNCaP cells; DX-1000 1 nM): inhibited
- tube formation of human endothelial cells (HUVECs; [11]): efficiently blocked tube formation
- IC50 (HUVECs; listed as DX-1000 (unmodified)): 1.39 nM
- effect on Clauss fibrinogen assays (Clauss fibrinogen assay): did not observe an effect
- half-life [6]: about 1 h
- effects in platelet function screening test (platelet function): no clinically significant effects
- fibrinolysis in thrombelastography (TEG) (fibrinolysis; two subjects with upper normal values): inhibition of fibrinolysis
- fibrinolysis in TEG with tPA (fibrinolysis; tPA): reduction in fibrinolysis
- APTT clotting times versus normal range ([7]; 1.4-5.6 μM): remained within the normal range
- effect on activated partial thromboplastin time (APTT) ([7]; higher doses (1.4-5.6 μM)): weak dose-dependent effect
- half-life [8]: 0.45 h
- tube formation of mouse endothelial cells [9, 11]: efficiently blocked tube formation
- IC50 [9]: 16.6 nM

Substance: 4-PEG DX-1000: exemplary modified DX-1000 molecule that includes four PEG moieties (MHSFCAFKAETGPCRARFDRWFFNIFTRQCEEFIYGGCEGNQNRFESLEECKKMCTRD; cysteine pairing not given here; also: four PEG moieties, places not given here)
- inhibition of plasmin-mediated pro-MMP-9 activation [2]: 92%
- inhibition of tubulogenesis / angiogenesis in vitro (endothelial cells): also inhibited tube formation
- IC50 (endothelial cells; read-out: IC50 tube formation, cell type not given): 0.98 ± 1.25 nM
- induction of apoptosis in HL-60 cells (HL-60 cells): do not induce apoptosis
- reduction in plasmin-activated MMP-9 activity [3]: 68-70%
- induction of apoptosis in SW-480 cells (SW-480 cells): do not induce apoptosis
- colony formation by SW480 cells (SW480 cells): did not inhibit colony formation
- expected stability in humans [10]: 9 days
- IC50 (HUVECs): 8.3 nM
- half-life [6]: 59 h
- half-life [8]: 13 h
- IC50 [9]: 15.8 nM
